Patent US9096602B2, “Substituted pyrrolo[2,3-B]pyrazines as ATR kinase inhibitors” (Vertex Pharmaceuticals Incorporated, priority 2011, dated 2015)

What follows are compounds tested against T1, ATR kinase (full-length ATR) (Homo sapiens, UniProt Q13535) (assay: ATR Inhibition Assay (radioactive-phosphate incorporation)). Conditions: Ki(app); 5 nM full-length ATR, 10 μM ATP, 800 μM target peptide, 25° C.; class symbols; read-out: ATR Inhibition Ki.
T1 construct: Assays were carried out at 25° C. in the presence of 5 nM full-length ATR
T1 sequence (Q13535 whole entry): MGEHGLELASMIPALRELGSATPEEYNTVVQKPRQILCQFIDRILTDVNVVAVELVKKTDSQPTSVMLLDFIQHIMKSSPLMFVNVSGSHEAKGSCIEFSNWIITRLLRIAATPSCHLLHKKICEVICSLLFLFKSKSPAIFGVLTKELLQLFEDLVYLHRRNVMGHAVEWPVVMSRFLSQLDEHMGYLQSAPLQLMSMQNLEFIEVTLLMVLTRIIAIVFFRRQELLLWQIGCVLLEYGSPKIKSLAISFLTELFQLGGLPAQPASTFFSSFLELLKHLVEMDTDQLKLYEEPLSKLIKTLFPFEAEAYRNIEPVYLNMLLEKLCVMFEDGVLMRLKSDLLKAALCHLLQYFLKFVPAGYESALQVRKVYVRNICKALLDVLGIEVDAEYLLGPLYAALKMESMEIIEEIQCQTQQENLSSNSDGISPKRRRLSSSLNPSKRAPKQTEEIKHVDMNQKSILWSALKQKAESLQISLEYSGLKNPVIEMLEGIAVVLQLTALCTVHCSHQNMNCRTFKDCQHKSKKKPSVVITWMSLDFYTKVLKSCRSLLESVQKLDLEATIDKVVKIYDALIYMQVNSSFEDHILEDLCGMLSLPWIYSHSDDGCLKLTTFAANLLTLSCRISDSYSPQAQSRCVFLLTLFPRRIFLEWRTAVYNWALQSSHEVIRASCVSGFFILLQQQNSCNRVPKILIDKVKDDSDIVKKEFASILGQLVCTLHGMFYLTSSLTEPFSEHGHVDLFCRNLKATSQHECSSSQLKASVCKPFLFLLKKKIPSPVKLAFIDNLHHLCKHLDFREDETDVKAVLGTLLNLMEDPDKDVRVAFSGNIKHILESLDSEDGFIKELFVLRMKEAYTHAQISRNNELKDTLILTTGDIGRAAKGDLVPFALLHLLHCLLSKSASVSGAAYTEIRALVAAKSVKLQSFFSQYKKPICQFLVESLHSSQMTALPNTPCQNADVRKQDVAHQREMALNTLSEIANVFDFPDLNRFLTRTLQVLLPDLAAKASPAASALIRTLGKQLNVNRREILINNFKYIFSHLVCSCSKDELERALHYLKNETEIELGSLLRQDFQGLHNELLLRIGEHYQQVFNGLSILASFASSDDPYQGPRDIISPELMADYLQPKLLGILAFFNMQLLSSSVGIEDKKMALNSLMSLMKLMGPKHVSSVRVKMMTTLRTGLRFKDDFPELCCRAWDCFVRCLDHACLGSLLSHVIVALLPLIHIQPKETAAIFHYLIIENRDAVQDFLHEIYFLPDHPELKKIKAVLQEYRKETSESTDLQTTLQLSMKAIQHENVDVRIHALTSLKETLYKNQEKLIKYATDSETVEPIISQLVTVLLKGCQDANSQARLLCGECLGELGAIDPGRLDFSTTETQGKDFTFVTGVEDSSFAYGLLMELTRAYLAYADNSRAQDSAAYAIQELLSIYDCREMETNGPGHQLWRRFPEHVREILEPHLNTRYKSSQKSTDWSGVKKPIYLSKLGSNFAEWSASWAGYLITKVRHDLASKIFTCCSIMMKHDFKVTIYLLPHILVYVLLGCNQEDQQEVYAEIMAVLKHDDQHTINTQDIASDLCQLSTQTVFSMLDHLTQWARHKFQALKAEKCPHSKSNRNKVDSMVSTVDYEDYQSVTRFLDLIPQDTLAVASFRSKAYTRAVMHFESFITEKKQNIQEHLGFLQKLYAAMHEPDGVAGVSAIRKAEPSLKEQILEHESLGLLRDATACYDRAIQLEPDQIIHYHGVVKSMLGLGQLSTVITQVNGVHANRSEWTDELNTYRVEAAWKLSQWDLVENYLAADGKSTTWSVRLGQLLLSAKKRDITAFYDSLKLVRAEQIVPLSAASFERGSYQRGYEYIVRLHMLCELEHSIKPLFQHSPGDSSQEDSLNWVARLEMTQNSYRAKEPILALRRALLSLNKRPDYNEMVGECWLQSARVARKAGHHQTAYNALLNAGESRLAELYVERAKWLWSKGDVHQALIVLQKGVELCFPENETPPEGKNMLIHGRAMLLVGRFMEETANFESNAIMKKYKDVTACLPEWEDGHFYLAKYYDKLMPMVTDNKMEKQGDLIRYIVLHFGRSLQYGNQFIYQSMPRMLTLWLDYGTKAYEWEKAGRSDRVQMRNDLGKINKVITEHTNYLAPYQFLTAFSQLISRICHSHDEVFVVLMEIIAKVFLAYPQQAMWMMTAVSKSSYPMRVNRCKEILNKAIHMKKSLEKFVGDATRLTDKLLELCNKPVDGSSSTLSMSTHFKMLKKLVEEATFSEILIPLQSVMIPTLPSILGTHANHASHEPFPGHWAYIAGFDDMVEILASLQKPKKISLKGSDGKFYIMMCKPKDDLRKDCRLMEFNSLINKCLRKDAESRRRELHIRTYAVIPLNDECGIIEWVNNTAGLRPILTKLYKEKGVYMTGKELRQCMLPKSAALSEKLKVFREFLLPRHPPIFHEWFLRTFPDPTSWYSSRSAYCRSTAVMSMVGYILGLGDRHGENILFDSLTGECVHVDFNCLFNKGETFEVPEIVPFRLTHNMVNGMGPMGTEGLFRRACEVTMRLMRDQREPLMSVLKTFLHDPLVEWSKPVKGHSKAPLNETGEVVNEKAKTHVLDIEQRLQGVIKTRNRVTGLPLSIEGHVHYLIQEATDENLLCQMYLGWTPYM
Format: biochemical
Method: Compounds were screened for their ability to inhibit ATR kinase using a radioactive-phosphate incorporation assay. Assays were carried out in a mixture of 50 mM Tris/HCl (pH 7.5), 10 mM MgCl2 and 1 mM DTT. Final substrate concentrations were 10 μM [y-33P]ATP (3mCi 33P ATP/mmol ATP, Perkin Elmer) and 800 μM target peptide ([…]).
Assays were carried out at 25° C. in the presence of 5 nM full-length ATR. An assay stock buffer solution was prepared containing all of the reagents listed above, with the exception of ATP and the test compound of interest. […] The plate was pre-incubated for 10 minutes at 25° C. and the reaction initiated by addition of 15 μL [y-33P]ATP (final concentration 10 μM).
The reaction was stopped after […] by the addition of 30 μL 0.1M phosphoric acid containing 2 mM ATP. A multiscreen phosphocellulose filter 96-well plate (Millipore, Cat no. MAPHN0B50) was pretreated with 100 μL 0.2M phosphoric acid prior to the addition of 45 μL of the stopped assay mixture. The plate was washed with 5×200 μL 0.2M phosphoric acid.
After removing mean background values for all of the data points, Ki(app) data were calculated from non-linear regression analysis of the initial rate data using the Prism software package (GraphPad Prism version 3.0cx for Macintosh, GraphPad Software, San Diego Calif., USA).

| SMILES | Ki |
| --- | --- |
| CC(O)c1cccc(NC(=O)c2c[nH]c3ncc(-c4ccc(S(=O)(=O)C(C)C)cc4)nc23)c1 (stereo not shown) [Compound I-34, N-[3-(1-hydroxyethyl)phenyl]-2-(4-isopropylsulfonylphenyl)-5H-pyrrolo[2,3-b]pyrazine-7-carboxamide] | 0.1 to 0.5 µM |
| CC(C)S(=O)(=O)c1ccc(-c2cnc3[nH]cc(C(=O)N[C@@H](C)c4ccccc4)c3n2)cc1 [Compound I-35, 2-(4-isopropylsulfonylphenyl)-N-[(1S)-1-phenylethyl]-5H-pyrrolo[2,3-b]pyrazine-7-carboxamide] | 0.5 to 5 µM |
| CC(C)S(=O)(=O)c1ccc(-c2cnc3[nH]cc(C(=O)NCc4ccc(N5CCOCC5)cc4)c3n2)cc1 [Compound I-38, 2-(4-isopropylsulfonylphenyl)-N-[(4-morpholinophenyl)methyl]-5H-pyrrolo[2,3-b]pyrazine-7-carboxamide] | 0.5 to 5 µM |
| CC(C)S(=O)(=O)c1ccc(-c2cnc3[nH]cc(C(=O)N4CCCC4CO)c3n2)cc1 (stereo not shown) [Compound I-40, [2-(hydroxymethyl)pyrrolidin-1-yl]-[2-(4-isopropylsulfonylphenyl)-5H-pyrrolo[2,3-b]pyrazin-7-yl]methanone] | 0.5 to 5 µM |
| CC(C)S(=O)(=O)c1ccc(-c2cnc3[nH]cc(C(=O)NC4(CO)CCCC4)c3n2)cc1 [Compound I-44, N-[1-(hydroxymethyl)cyclopentyl]-2-(4-isopropylsulfonylphenyl)-5H-pyrrolo[2,3-b]pyrazine-7-carboxamide] | 0.1 to 0.5 µM |
| CC(C)S(=O)(=O)c1ccc(-c2cnc3[nH]cc(C(=O)Nc4ccccc4CCO)c3n2)cc1 [Compound I-50, N-[2-(2-hydroxyethyl)phenyl]-2-(4-isopropylsulfonylphenyl)-5H-pyrrolo[2,3-b]pyrazine-7-carboxamide] | 0.1 to 0.5 µM |
| CC(C)S(=O)(=O)c1ccc(-c2cnc3[nH]cc(C(=O)N[C@@H](CCO)c4ccccc4)c3n2)cc1 [Compound I-51, N-[(1S)-3-hydroxy-1-phenyl-propyl]-2-(4-isopropylsulfonylphenyl)-5H-pyrrolo[2,3-b]pyrazine-7-carboxamide] | 0.5 to 5 µM |
| CC(C)S(=O)(=O)c1ccc(-c2cnc3[nH]cc(C(=O)NCc4ccccn4)c3n2)cc1 [Compound I-52, 2-(4-isopropylsulfonylphenyl)-N-(2-pyridylmethyl)-5H-pyrrolo[2,3-b]pyrazine-7-carboxamide] | 0.1 to 0.5 µM |
| CC(C)S(=O)(=O)c1ccc(-c2cnc3[nH]cc(C(=O)N[C@@H](CO)c4ccccc4)c3n2)cc1 [Compound I-56, N-[(1R)-2-hydroxy-1-phenyl-ethyl]-2-(4-isopropylsulfonylphenyl)-5H-pyrrolo[2,3-b]pyrazine-7-carboxamide] | 0.1 to 0.5 µM |
| COC[C@H](NC(=O)c1c[nH]c2ncc(-c3ccc(S(=O)(=O)C(C)C)cc3)nc12)c1ccccc1 [Compound I-58, 2-(4-isopropylsulfonylphenyl)-N-[(1R)-2-methoxy-1-phenyl-ethyl]-5H-pyrrolo[2,3-b]pyrazine-7-carboxamide] | 0.5 to 5 µM |
| CC(C)S(=O)(=O)c1ccc(-c2cnc3[nH]cc(C(=O)NCc4cccnc4)c3n2)cc1 [Compound I-59, 2-(4-isopropylsulfonylphenyl)-N-(3-pyridylmethyl)-5H-pyrrolo[2,3-b]pyrazine-7-carboxamide] | 0.1 to 0.5 µM |
| CC(C)S(=O)(=O)c1ccc(-c2cnc3[nH]cc(C(=O)NCc4ccncc4)c3n2)cc1 [Compound I-60, 2-(4-isopropylsulfonylphenyl)-N-(4-pyridylmethyl)-5H-pyrrolo[2,3-b]pyrazine-7-carboxamide] | 0.1 to 0.5 µM |
| CC(C)S(=O)(=O)c1ccc(-c2cnc3[nH]cc(C(=O)NC[C@@H](O)c4ccccc4)c3n2)cc1 [Compound I-62, N-[(2S)-2-hydroxy-2-phenyl-ethyl]-2-(4-isopropylsulfonylphenyl)-5H-pyrrolo[2,3-b]pyrazine-7-carboxamide] | < 0.1 µM |
| CC(C)S(=O)(=O)c1ccc(-c2cnc3[nH]cc(C(=O)NCC4CCCO4)c3n2)cc1 (stereo not shown) [Compound I-63, 2-(4-isopropylsulfonylphenyl)-N-(tetrahydrofuran-2-ylmethyl)-5H-pyrrolo[2,3-b]pyrazine-7-carboxamide] | < 0.1 µM |
| Cc1ccc(NC(=O)c2c[nH]c3ncc(-c4ccc(S(=O)(=O)C(C)C)cc4)nc23)cc1F [Compound I-64, N-(3-fluoro-4-methyl-phenyl)-2-(4-isopropylsulfonylphenyl)-5H-pyrrolo[2,3-b]pyrazine-7-carboxamide] | < 0.1 µM |

Results, then the compound that gave them:

| Ki | SMILES |
| --- | --- |
| < 0.1 µM | CC(C)S(=O)(=O)c1ccc(-c2cnc3[nH]cc(C(=O)Nc4cccc(C(N)=O)c4)c3n2)cc1 [Compound I-36, N-(3-carbamoylphenyl)-2-(4-isopropylsulfonylphenyl)-5H-pyrrolo[2,3-b]pyrazine-7-carboxamide] |
| < 0.1 µM | CC(C)S(=O)(=O)c1ccc(-c2cnc3[nH]cc(C(=O)NC[C@H](O)c4ccccc4)c3n2)cc1 [Compound I-37, N-[(2R)-2-hydroxy-2-phenyl-ethyl]-2-(4-isopropylsulfonylphenyl)-5H-pyrrolo[2,3-b]pyrazine-7-carboxamide] |
| < 0.1 µM | CC(C)S(=O)(=O)c1ccc(-c2cnc3[nH]cc(C(=O)Nc4ccccc4C#N)c3n2)cc1 [Compound I-41, N-(2-cyanophenyl)-2-(4-isopropylsulfonylphenyl)-5H-pyrrolo[2,3-b]pyrazine-7-carboxamide] |
| < 0.1 µM | CC(C)S(=O)(=O)c1ccc(-c2cnc3[nH]cc(C(=O)NC(CO)c4ccccc4)c3n2)cc1 (stereo not shown) [Compound I-42, N-(2-hydroxy-1-phenyl-ethyl)-2-(4-isopropylsulfonylphenyl)-5H-pyrrolo[2,3-b]pyrazine-7-carboxamide] |
| < 0.1 µM | CC(C)S(=O)(=O)c1ccc(-c2cnc3[nH]cc(C(=O)Nc4noc5ccccc45)c3n2)cc1 [Compound I-43, N-(1,2-benzoxazol-3-yl)-2-(4-isopropylsulfonylphenyl)-5H-pyrrolo[2,3-b]pyrazine-7-carboxamide] |
| < 0.1 µM | CC(C)S(=O)(=O)c1ccc(-c2cnc3[nH]cc(C(=O)N[C@H](C)c4ccccc4)c3n2)cc1 [Compound I-45, 2-(4-isopropylsulfonylphenyl)-N-[(1R)-1-phenylethyl]-5H-pyrrolo[2,3-b]pyrazine-7-carboxamide] |
| < 0.1 µM | CC(C)S(=O)(=O)c1ccc(-c2cnc3[nH]cc(C(=O)NCc4ccccc4Cl)c3n2)cc1 [Compound I-48, N-[(2-chlorophenyl)methyl]-2-(4-isopropylsulfonylphenyl)-5H-pyrrolo[2,3-b]pyrazine-7-carboxamide] |
| < 0.1 µM | CC(C)S(=O)(=O)c1ccc(-c2cnc3[nH]cc(C(=O)NCc4ccc(N(C)C)cc4)c3n2)cc1 [Compound I-49, N-[(4-dimethylaminophenyl)methyl]-2-(4-isopropylsulfonylphenyl)-5H-pyrrolo[2,3-b]pyrazine-7-carboxamide] |
| < 0.1 µM | CC(C)S(=O)(=O)c1ccc(-c2cnc3[nH]cc(C(=O)NC4CCc5ccccc54)c3n2)cc1 (stereo not shown) [Compound I-53, N-indan-1-yl-2-(4-isopropylsulfonylphenyl)-5H-pyrrolo[2,3-b]pyrazine-7-carboxamide] |
| < 0.1 µM | Cc1cccc(Cl)c1CNC(=O)c1c[nH]c2ncc(-c3ccc(S(=O)(=O)C(C)C)cc3)nc12 [Compound I-54, N-[(2-chloro-6-methyl-phenyl)methyl]-2-(4-isopropylsulfonylphenyl)-5H-pyrrolo[2,3-b]pyrazine-7-carboxamide] |
| < 0.1 µM | Cc1cc(NC(=O)c2c[nH]c3ncc(-c4ccc(S(=O)(=O)C(C)C)cc4)nc23)[nH]n1 [Compound I-55, 2-(4-isopropylsulfonylphenyl)-N-(3-methyl-1H-pyrazol-5-yl)-5H-pyrrolo[2,3-b]pyrazine-7-carboxamide] |
| < 0.1 µM | CC(C)S(=O)(=O)c1ccc(-c2cnc3[nH]cc(C(=O)NCc4ccc(N)cc4)c3n2)cc1 [Compound I-57, N-[(4-aminophenyl)methyl]-2-(4-isopropylsulfonylphenyl)-5H-pyrrolo[2,3-b]pyrazine-7-carboxamide] |
| < 0.1 µM | CC(C)S(=O)(=O)c1ccc(-c2cnc3[nH]cc(C(=O)NCCc4ccccn4)c3n2)cc1 [Compound I-61, 2-(4-isopropylsulfonylphenyl)-N-[2-(2-pyridyl)ethyl]-5H-pyrrolo[2,3-b]pyrazine-7-carboxamide] |

Same assay, conditions: Ki(app); 5 nM full-length ATR, 10 μM ATP, 800 μM target peptide, 25° C.; given as numeric lower bound without unit; read-out: ATR Inhibition Ki

| Ki | SMILES |
| --- | --- |
| > 0.25 µM | CC(C)S(=O)(=O)c1ccc(-c2cnc3[nH]cc(C(=O)N4CCCCC4)c3n2)cc1 [Compound I-39, [2-(4-isopropylsulfonylphenyl)-5H-pyrrolo[2,3-b]pyrazin-7-yl]-(1-piperidyl)methanone] |
| > 0.25 µM | CC(C)S(=O)(=O)c1ccc(-c2cnc3[nH]cc(C(=O)NCc4cccc(Cl)c4)c3n2)cc1 [Compound I-46, N-[(3-chlorophenyl)methyl]-2-(4-isopropylsulfonylphenyl)-5H-pyrrolo[2,3-b]pyrazine-7-carboxamide] |
| > 0.25 µM | CC(C)S(=O)(=O)c1ccc(-c2cnc3[nH]cc(C(=O)Nc4ccc(C(N)=O)cc4)c3n2)cc1 [Compound I-47, N-(4-carbamoylphenyl)-2-(4-isopropylsulfonylphenyl)-5H-pyrrolo[2,3-b]pyrazine-7-carboxamide] |
